Test results reported in ChEMBL document CHEMBL1201862, “PubChem BioAssay data set” (2004).
“And” between values parts separate entries of the source, which are not always exact repeats. Identical values can stand only once.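 Five compound concentrations were applied to cells in 96-well plates for 48 hours; endpoints were derived by simple linear interpolation of the resulting dose-response curve. At the GI50, growth is halved.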 The source made the active and inactive calls. No stated cut-off is given here; in the data, active = GI50 up to about 1.1 µM and inactive = higher.

What was measured:
Test in all cases: growth of human tumour cells (NCI), 48 h
[1] = tested on: HCC 2998
[2] = tested on: SK-MEL-5
[3] = tested on: LOX IMVI
[4] = tested on: DU-145
[5] = tested on: OVCAR-5
[6] = tested on: T47D
[7] = tested on: SF-539
[8] = tested on: HCT-116
[9] = tested on: IGROV-1
[10] = tested on: 786-0
[11] = tested on: HCT-15
[12] = tested on: CAKI-1
[13] = tested on: SK-MEL-2
[14] = tested on: SK-MEL-28
[15] = tested on: K562
[16] = tested on: PC-3
[17] = tested on: RPMI-8226
[18] = tested on: MDA-MB-435
[19] = tested on: A498
[20] = tested on: OVCAR-3
[21] = tested on: SNB-19
[22] = tested on: MCF7
[23] = tested on: MDA-MB-231
[24] = tested on: NCI-H460
[25] = tested on: UACC-257
[26] = tested on: SR
[27] = tested on: SN12C
[28] = tested on: COLO 205
[29] = tested on: MOLT-4
[30] = tested on: SW-620
[31] = tested on: UO-31
[32] = tested on: MDA-N
[33] = tested on: NCI-H522
[34] = tested on: OVCAR-4
[35] = tested on: KM12
[36] = tested on: NCI-H23
[37] = tested on: ACHN
[38] = tested on: Hs-578T
[39] = tested on: HL-60
[40] = tested on: EKVX
[41] = tested on: TK-10
[42] = tested on: M14
[43] = tested on: NCI-H226
[44] = tested on: HOP-62
[45] = tested on: SF-295
[46] = tested on: HT-29
[47] = tested on: OVCAR-8
[48] = tested on: NCI/ADR-RES
[49] = tested on: U-251
[50] = tested on: SK-OV-3
[51] = tested on: SF-268
[52] = tested on: HOP-92
[53] = tested on: CCRF-CEM
[54] = tested on: RXF 393
[55] = tested on: SNB-75
[56] = tested on: A549
[57] = tested on: UACC-62
[58] = tested on: Malme-3M

O=[N+]([O-])c1ccc(/N=N/c2c(O)ccc3ccccc23)cc1
GI50 [1]: > 100 µM (inactive)
GI50 [2]: > 100 µM (inactive)
GI50 [3]: > 100 µM (inactive)
GI50 [4]: > 100 µM (inactive)
GI50 [5]: > 100 µM (inactive) and 65.2 µM (inactive)
GI50 [6]: > 100 µM (inactive)
GI50 [7]: > 100 µM (inactive)
GI50 [8]: > 100 µM (inactive)
GI50 [9]: 19.4 µM (inactive) and > 32 µM (inactive)
GI50 [10]: > 100 µM (inactive)
GI50 [11]: > 100 µM
GI50 [12]: > 100 µM (inactive)
GI50 [13]: 84.9 µM (inactive)
GI50 [14]: > 100 µM (inactive)
GI50 [15]: > 100 µM (inactive)
GI50 [16]: 73.5 µM (inactive)
GI50 [17]: > 100 µM (inactive)
GI50 [18]: > 100 µM (inactive)
GI50 [19]: > 100 µM (inactive)
GI50 [20]: 50.5 µM (inactive)
GI50 [21]: > 100 µM (inactive)
GI50 [22]: > 100 µM (inactive)
GI50 [23]: > 100 µM (inactive)
GI50 [24]: > 100 µM (inactive)
GI50 [25]: > 100 µM (inactive)
GI50 [26]: > 22.2 µM (inactive) and 21.2 µM (inactive)
GI50 [27]: > 100 µM (inactive)
GI50 [28]: > 100 µM (inactive)
GI50 [29]: 95.1 µM (inactive)
GI50 [30]: > 100 µM (inactive)
GI50 [31]: > 100 µM (inactive) and 98.4 µM (inactive)
GI50 [32]: > 100 µM (inactive)
GI50 [33]: 0.293 µM (active)

CCn1c(-c2cc3ccccc3cc2OC(C)=O)n[nH]c1=S
GI50 [1]: 18 µM (inactive)
GI50 [2]: 14.9 µM (inactive)
GI50 [3]: 37.2 µM (inactive)
GI50 [34]: 30 µM (inactive)
GI50 [35]: 27.6 µM (inactive)
GI50 [4]: 35.5 µM (inactive)
GI50 [5]: 44.6 µM (inactive)
GI50 [36]: 30.5 µM (inactive)
GI50 [37]: 35.8 µM (inactive)
GI50 [6]: 18.6 µM (inactive)
GI50 [7]: 35.6 µM (inactive)
GI50 [8]: 18.5 µM (inactive)
GI50 [9]: 39.6 µM (inactive)
GI50 [38]: 15.2 µM (inactive)
GI50 [39]: 0.0805 µM (active)
GI50 [10]: 75.7 µM (inactive)
GI50 [11]: 27 µM
GI50 [40]: 9.95 µM (inactive)
GI50 [41]: 27.4 µM (inactive)
GI50 [42]: 24.2 µM (inactive)
GI50 [12]: 30.8 µM (inactive)
GI50 [43]: 38.6 µM (inactive)
GI50 [13]: 18.2 µM (inactive)
GI50 [14]: 32.4 µM (inactive)
GI50 [44]: 57.3 µM (inactive)
GI50 [45]: 23.4 µM (inactive)
GI50 [15]: 14.5 µM (inactive)
GI50 [46]: 30.4 µM (inactive)
GI50 [47]: 38.4 µM (inactive)
GI50 [16]: 15.8 µM (inactive)
GI50 [17]: 18.7 µM (inactive)
GI50 [18]: 23.3 µM (inactive)
GI50 [19]: 25.8 µM (inactive)
GI50 [48]: 21.2 µM (inactive)
GI50 [20]: 23.7 µM (inactive)
GI50 [49]: 20.2 µM (inactive)
GI50 [50]: 50.7 µM (inactive)
GI50 [22]: 30.8 µM (inactive)
GI50 [23]: 26.1 µM (inactive)
GI50 [24]: 24.7 µM (inactive)
GI50 [51]: 24.9 µM (inactive)
GI50 [25]: 24.2 µM (inactive)
GI50 [26]: 624 nM (active)
GI50 [52]: 58.1 µM (inactive)
GI50 [53]: 1.16 µM (inactive)
GI50 [29]: 18.7 µM (inactive)
GI50 [30]: 35 µM (inactive)
GI50 [31]: 67.8 µM (inactive)
GI50 [54]: 11.1 µM (inactive)
GI50 [33]: 16.1 µM (inactive)

CCOc1ccc(-c2nc(-c3oc4ccccc4c(=O)c3OC(C)=O)cs2)cc1
GI50 [1]: > 10 µM (inactive)
GI50 [55]: 8.97 µM (inactive)
GI50 [2]: > 10 µM (inactive)
GI50 [3]: > 10 µM (inactive)
GI50 [35]: > 10 µM (inactive)
GI50 [4]: > 10 µM (inactive)
GI50 [36]: > 10 µM (inactive)
GI50 [6]: > 10 µM (inactive)
GI50 [56]: > 10 µM (inactive)
GI50 [9]: > 10 µM (inactive)
GI50 [39]: > 10 µM (inactive)
GI50 [10]: > 10 µM (inactive)
GI50 [11]: 7.13 µM
GI50 [40]: > 10 µM (inactive)
GI50 [41]: > 10 µM (inactive)
GI50 [42]: > 10 µM (inactive)
GI50 [12]: > 10 µM (inactive)
GI50 [14]: 6.71 µM (inactive)
GI50 [44]: > 10 µM (inactive)
GI50 [45]: > 10 µM (inactive)
GI50 [15]: 5.5 µM (inactive)
GI50 [46]: > 10 µM (inactive)
GI50 [47]: > 10 µM (inactive)
GI50 [16]: > 10 µM (inactive)
GI50 [17]: > 10 µM (inactive)
GI50 [50]: > 10 µM (inactive)
GI50 [22]: 3.52 µM (inactive)
GI50 [23]: > 10 µM (inactive)
GI50 [57]: > 10 µM (inactive)
GI50 [51]: 9.06 µM (inactive)
GI50 [25]: > 10 µM (inactive)
GI50 [26]: > 10000 nM (inactive)
GI50 [27]: 9.93 µM (inactive)
GI50 [28]: > 10 µM (inactive)
GI50 [53]: 7.57 µM (inactive)
GI50 [29]: > 10 µM (inactive)
GI50 [58]: > 10 µM (inactive)
GI50 [30]: > 10 µM (inactive)
GI50 [32]: 6.18 µM (inactive)
GI50 [54]: 2.62 µM (inactive)
